From US20110178104A1, “Anti-Heparin Compounds” (POLYMEDIX INC., priority 2010, published 2011)

Assays:
enoxaparin (ENOX) = assay: FXa chromogenic assay (absence of plasma), enoxaparin; conditions: enoxaparin 0.1 μg/mL, absence of plasma
fondaparinux (FONDAPX) = assay: FXa chromogenic assay (absence of plasma), fondaparinux; conditions: fondaparinux 0.02 μg/mL, absence of plasma
[1] = test system: unfractionated heparin (UFH); assay: aPTT clotting assay, UFH 0.2 U/mL in plasma (Example 7); format: biochemical; conditions: UFH 0.2 U/mL in plasma
Procedure: aPTT clotting Assay. Unfractionated heparin was mixed with plasma at a final concentration of 0.2 U/mL. […] The ACL Elite Hemostasis analyzer (Beckman Coulter™) was used to add aPTT reagent (HemosIL SynthASil) to supplemented plasma. Clotting was initiated by addition of CaCl2 and time to clot was recorded.

SMILES	ENOX (FXa) EC50 (enoxaparin (ENOX)) [µg/mL]	FONDAPX (FXa) EC50 (fondaparinux (FONDAPX))	UFH (aPTT) EC50 [1]
COc1ccc(NC(=O)[C@H](CCCNC(=N)N)NC(=O)c2cc(NC(=O)[C@H](CCCNC(=N)N)NC(=O)c3cc(NC(=O)[C@H](C)NC(=O)CCCCNC(=N)N)ccc3OC)ccc2OC)cc1C(N)=O [Compound 120]	1.36	5.96 µg/mL	9.62 µg/mL
COc1ccc(NC(=O)[C@H](CCCCN)NC(=O)c2cc(NC(=O)[C@H](CCCCN)NC(=O)c3cc(NC(=O)[C@H](CCCCN)NC(=O)c4cc(NC(=O)[C@@H](N)CCCCN)ccc4OC)ccc3SC)ccc2OC)cc1C(N)=O [Compound 132]	>20	inactive	>10 µg/mL
COc1ccc(NC(=O)[C@@H](CCCNC(=N)N)NC(=O)c2cc(NC(=O)[C@@H](CCCNC(=N)N)NC(=O)c3cc(NC(=O)[C@@H](CCCNC(=N)N)NC(=O)c4cc(NC(C)=O)ccc4OC)ccc3OC)ccc2OC)cc1C(=O)NCCN [Compound 52]	0.35	1.90 µg/mL	2.13 µg/mL
COc1ccc(NC(=O)[C@H](CCCCN)NC(=O)c2cc(NC(=O)[C@@H](N)CCCCN)ccc2OC)cc1C(=O)N[C@@H](CCCCN)C(=O)Nc1ccc(OC)c(C(=O)N[C@@H](CCCCN)C(=O)Nc2ccc(SC)c(C(N)=O)c2)c1 [Compound 134]	1.829	inactive	2.84 µg/mL
COc1ccc(NC(=O)[C@H](CCCCN)NC(=O)c2cc(NC(=O)[C@H](CCCCN)NC(=O)c3cc(NC(=O)[C@H](CCCCN)NC(=O)c4cc(NC(=O)[C@@H](N)CCCCN)ccc4OC)ccc3OC)ccc2OC)cc1C(=O)N[C@@H](CCC(=O)O)C(=O)O [Compound 145]	1.141	9.463 µg/mL	4.26 µg/mL
COc1ccc(NC(=O)[C@H](CCCCN)NC(=O)c2cc(NC(=O)[C@@H](N)CCCCN)ccc2OC)cc1C(=O)N[C@@H](CCCCN)C(=O)Nc1ccc(OC)c(C(=O)N[C@@H](CCCCN)C(=O)Nc2ccc(OC)c(C(=O)N[C@H](Cc3ccccc3)C(=O)O)c2)c1 [Compound 111]	1.348	>20 µg/mL	2.54 µg/mL
COc1ccc(NC(=O)[C@@H](CCCNC(=N)N)NC(=O)c2cc(NC(=O)[C@@H](CCCNC(=N)N)NC(=O)c3cc(NC(=O)[C@H](N)CCCNC(=N)N)ccc3OC)ccc2OC)cc1C(=O)N[C@H](CCCNC(=N)N)C(N)=O [Compound 42]	4.07	70.66 µg/mL	2.34 µg/mL
COc1ccc(NC(=O)[C@H](N)CCCNC(=N)N)cc1C(=O)N[C@H](CCCNC(=N)N)C(=O)Nc1ccc(OC)c(C(=O)N[C@H](CCCNC(=N)N)C(=O)Nc2ccc(OC)c(C(=O)N[C@H](CCCNC(=N)N)C(=O)Nc3cccc(C(N)=O)c3)c2)c1 [Compound 67]	0.33	5.19 µg/mL	1.75 µg/mL
N=C(N)NCCCCC(=O)Nc1cc(C(F)(F)F)cc(NC(=O)c2cc(C(=O)Nc3cc(C(F)(F)F)cc(NC(=O)CCCCNC(=N)N)c3SCCN)ncn2)c1SCCN [Compound 6]	0.57	inactive	29.11 µg/mL
COc1cc(OC)c(C(=O)N[C@H]2CC[C@H](NC(=O)c3cc(C(=O)NCCN(C)C)c(OCCCCCN)cc3OCCCCCN)CC2)cc1C(=O)NC1CCC(NC(=O)c2cc(C(=O)NCCN(C)C)c(OCCCCCN)cc2OCCCCCN)CC1 (stereo partly drawn) [Compound 2]	2.26	inactive	6.25 µg/mL

Second part, the compound after the results:

ENOX (FXa) EC50 (enoxaparin (ENOX)) [µg/mL]	FONDAPX (FXa) EC50 (fondaparinux (FONDAPX))	UFH (aPTT) EC50 [1]	SMILES
0.9421	13.39 µg/mL	11.56 µg/mL	COc1ccc(NC(=O)[C@H](CCCCN)NC(=O)c2cc(NC(=O)[C@H](CCCCN)NC(=O)c3cc(NC(=O)[C@H](CCCCN)NC(=O)c4cc(NC(=O)[C@@H](N)CCCCN)ccc4OCC(=O)O)ccc3OC)ccc2OC)cc1C(N)=O [Compound 119]
0.16	3.85 µg/mL	1.65 µg/mL	COc1ccc(NC(=O)[C@@H](CCCNC(=N)N)NC(=O)c2cc(NC(=O)[C@@H](CCCNC(=N)N)NC(=O)c3cc(NC(=O)[C@@H](CCCNC(=N)N)NC(=O)c4cc(NC(=O)[C@H](N)CCCNC(=N)N)ccc4OC)ccc3OC)ccc2OC)cc1C(=O)NCCCCCN [Compound 41]
0.3298	2.332 µg/mL	2.15 µg/mL	COc1ccc(NC(=O)[C@H](CCCCN)NC(=O)c2cc(NC(=O)[C@H](CCCCN)NC(=O)c3cc(NC(=O)[C@H](CCCNC(N)=O)NC(=O)c4cc(NC(=O)[C@@H](N)CCCCN)ccc4OC)ccc3OC)ccc2OC)cc1C(N)=O [Compound 138]
0.61	2.47 µg/mL	4.55 µg/mL	COc1ccc(NC(=O)[C@H](CCCCN)NC(=O)c2cc(NC(=O)[C@H](CCCCN)NC(=O)c3cc(NC(=O)[C@H](C)NC(=O)c4cc(NC(=O)[C@@H](N)CCCCN)ccc4OC)ccc3OC)ccc2OC)cc1C(N)=O [Compound 77]
0.23	3.21 µg/mL	2.28 µg/mL	COc1ccc(NC(=O)[C@H](CCCCN)NC(=O)c2cc(NC(=O)[C@H](CCCCN)NC(=O)c3cc(NC(=O)[C@H](CCCCN)NC(=O)c4cc(NC(=O)[C@H](CCCCN)NC(C)=O)ccc4OC)ccc3OC)ccc2OC)cc1C(N)=O [Compound 28]
0.3196	2.485 µg/mL	2.46 µg/mL	COc1ccc(NC(=O)[C@H](CCCCN)NC(=O)c2cc(NC(=O)[C@H](CCCNC(N)=O)NC(=O)c3cc(NC(=O)[C@H](CCCCN)NC(=O)c4cc(NC(=O)[C@@H](N)CCCCN)ccc4OC)ccc3OC)ccc2OC)cc1C(N)=O [Compound 139]
0.3254	6.037 µg/mL	3.91 µg/mL	COc1ccc(NC(=O)[C@H](CCCCN)NC(=O)c2cc(NC(=O)[C@H](CCCCN)NC(=O)c3cc(NC(=O)[C@H](CCCCN)NC(=O)c4cc(NC(=O)[C@H](N)CCCCN)ccc4OC)ccc3OC)ccc2OC)cc1C(N)=O [Compound 122]
0.36	4.44 µg/mL	2.33 µg/mL	COc1ccc(NC(=O)[C@@H](CCCCN)NC(=O)c2cc(NC(=O)[C@@H](CCCNC(=N)N)NC(=O)c3cc(NC(=O)[C@@H](CCCCN)NC(=O)c4cc(NC(=O)[C@H](N)CCCNC(=N)N)ccc4OC)ccc3OC)ccc2OC)cc1C(N)=O [Compound 43]
1.027	19.030 µg/mL	2.74 µg/mL	COc1ccc(NC(=O)[C@H](CCCCN)NC(=O)c2cc(NC(=O)[C@@H](N)CCCCN)ccc2OC)cc1C(=O)N[C@@H](CCCCN)C(=O)Nc1ccc(OC)c(C(=O)N[C@@H](CCCCN)C(=O)Nc2ccc(OC)c(C(=O)N[C@H](C)C(=O)O)c2)c1 [Compound 146]
0.35	4.34 µg/mL	inactive	COc1ccc(NC(=O)[C@H](CCCCN)NC(=O)c2cc(NC(=O)[C@H](CCCCN)NC(=O)c3cc(NC(=O)[C@H](CCCNC(=N)N)NC(=O)c4cc(NC(=O)[C@@H](N)CCCCN)ccc4OC)ccc3OC)ccc2OC)cc1C(N)=O [Compound 80]
